Laboratory results as given in patent US20240132485A1, “HETEROCYCLIC CULLIN RING UBIQUITIN LIGASE COMPOUNDS AND USES THEREOF” (CEMM - FORSCHUNGSZENTRUM FÜR MOLEKULARE MEDIZIN GMBH, priority 2020, published 2024).

How the values were obtained:
[1] = biological target: T1, DDB1-CDK12/Cyclin K ternary complex (Homo sapiens, UniProt Q16531+Q9NYV4); assay: NanoBRET fold-change assay (HaloTag_CDK12 / NanoLuc_DDB1 in HEK293T); assay type: cell-based; settings: 10 μM compound, 10 minutes
T1 construct: expressed in transfected cells; host or cells: HEK293T wildtype cells, transient PEI transfection
T1 sequence (Q9NYV4 whole entry): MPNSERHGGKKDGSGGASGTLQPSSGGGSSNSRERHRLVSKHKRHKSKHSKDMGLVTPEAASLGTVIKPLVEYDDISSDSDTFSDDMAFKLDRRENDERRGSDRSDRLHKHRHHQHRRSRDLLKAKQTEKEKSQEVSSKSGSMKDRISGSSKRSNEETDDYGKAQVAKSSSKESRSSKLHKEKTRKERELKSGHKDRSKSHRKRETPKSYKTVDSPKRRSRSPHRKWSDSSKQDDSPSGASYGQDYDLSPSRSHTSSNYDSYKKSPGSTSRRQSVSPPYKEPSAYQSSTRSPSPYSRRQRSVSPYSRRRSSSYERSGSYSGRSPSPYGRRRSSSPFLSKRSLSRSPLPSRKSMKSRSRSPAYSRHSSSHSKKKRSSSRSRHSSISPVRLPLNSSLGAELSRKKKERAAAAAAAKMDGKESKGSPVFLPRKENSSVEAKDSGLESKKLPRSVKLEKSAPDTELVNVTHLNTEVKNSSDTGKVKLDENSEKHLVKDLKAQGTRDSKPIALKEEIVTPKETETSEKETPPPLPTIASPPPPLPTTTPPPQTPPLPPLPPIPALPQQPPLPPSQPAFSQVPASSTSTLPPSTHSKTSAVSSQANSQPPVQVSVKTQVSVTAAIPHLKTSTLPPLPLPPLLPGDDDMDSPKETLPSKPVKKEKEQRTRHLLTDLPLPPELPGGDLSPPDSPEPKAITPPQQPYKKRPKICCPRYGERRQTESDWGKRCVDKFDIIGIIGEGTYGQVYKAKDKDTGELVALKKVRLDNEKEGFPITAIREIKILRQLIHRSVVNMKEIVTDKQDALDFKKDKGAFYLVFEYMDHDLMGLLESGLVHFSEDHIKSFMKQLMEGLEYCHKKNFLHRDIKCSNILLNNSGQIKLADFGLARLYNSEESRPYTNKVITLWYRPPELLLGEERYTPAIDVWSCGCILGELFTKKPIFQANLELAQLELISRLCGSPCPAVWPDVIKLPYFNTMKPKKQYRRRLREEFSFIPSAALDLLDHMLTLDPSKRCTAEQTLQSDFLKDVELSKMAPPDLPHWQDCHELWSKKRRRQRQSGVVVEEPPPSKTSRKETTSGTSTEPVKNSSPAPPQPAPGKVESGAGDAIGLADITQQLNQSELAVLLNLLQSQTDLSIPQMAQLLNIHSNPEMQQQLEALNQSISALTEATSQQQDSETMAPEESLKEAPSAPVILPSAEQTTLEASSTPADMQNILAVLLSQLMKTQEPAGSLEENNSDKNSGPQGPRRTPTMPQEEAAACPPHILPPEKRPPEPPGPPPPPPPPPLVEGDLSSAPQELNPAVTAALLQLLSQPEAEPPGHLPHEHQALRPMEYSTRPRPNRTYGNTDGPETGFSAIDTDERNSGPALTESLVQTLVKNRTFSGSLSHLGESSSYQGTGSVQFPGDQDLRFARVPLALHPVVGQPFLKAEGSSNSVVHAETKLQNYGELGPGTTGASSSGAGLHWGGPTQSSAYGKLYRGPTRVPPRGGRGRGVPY
T1 sequence (Q16531 whole entry): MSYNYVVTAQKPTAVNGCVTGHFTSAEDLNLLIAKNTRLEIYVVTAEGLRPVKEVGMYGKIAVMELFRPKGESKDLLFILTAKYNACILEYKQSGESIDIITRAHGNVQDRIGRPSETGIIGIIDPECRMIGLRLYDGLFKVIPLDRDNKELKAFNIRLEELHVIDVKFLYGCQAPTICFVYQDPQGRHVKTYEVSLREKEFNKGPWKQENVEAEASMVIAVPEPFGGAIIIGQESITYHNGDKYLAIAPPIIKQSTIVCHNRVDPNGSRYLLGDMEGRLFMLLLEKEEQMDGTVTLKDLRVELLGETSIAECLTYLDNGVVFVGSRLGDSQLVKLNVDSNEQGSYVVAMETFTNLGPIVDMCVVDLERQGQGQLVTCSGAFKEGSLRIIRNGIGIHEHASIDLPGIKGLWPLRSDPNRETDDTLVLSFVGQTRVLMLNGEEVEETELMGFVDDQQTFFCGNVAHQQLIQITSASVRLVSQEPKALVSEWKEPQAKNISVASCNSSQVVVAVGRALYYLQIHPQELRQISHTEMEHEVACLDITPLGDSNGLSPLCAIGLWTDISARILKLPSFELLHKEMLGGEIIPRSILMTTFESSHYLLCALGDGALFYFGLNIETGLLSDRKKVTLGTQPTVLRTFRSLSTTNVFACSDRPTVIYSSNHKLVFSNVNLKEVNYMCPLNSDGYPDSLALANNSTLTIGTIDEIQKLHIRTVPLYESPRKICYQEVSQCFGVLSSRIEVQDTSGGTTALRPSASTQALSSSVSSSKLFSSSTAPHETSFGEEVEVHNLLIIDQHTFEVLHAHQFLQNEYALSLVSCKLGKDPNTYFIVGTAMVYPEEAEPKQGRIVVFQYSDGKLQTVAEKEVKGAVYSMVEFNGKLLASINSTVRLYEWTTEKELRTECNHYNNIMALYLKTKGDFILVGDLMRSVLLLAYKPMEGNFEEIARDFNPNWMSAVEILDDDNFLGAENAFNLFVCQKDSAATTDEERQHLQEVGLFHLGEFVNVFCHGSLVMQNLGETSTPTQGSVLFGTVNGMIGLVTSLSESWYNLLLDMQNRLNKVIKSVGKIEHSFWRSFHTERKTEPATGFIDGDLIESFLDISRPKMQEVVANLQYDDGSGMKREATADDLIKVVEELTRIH
T1 sequence (O75909 whole entry partner): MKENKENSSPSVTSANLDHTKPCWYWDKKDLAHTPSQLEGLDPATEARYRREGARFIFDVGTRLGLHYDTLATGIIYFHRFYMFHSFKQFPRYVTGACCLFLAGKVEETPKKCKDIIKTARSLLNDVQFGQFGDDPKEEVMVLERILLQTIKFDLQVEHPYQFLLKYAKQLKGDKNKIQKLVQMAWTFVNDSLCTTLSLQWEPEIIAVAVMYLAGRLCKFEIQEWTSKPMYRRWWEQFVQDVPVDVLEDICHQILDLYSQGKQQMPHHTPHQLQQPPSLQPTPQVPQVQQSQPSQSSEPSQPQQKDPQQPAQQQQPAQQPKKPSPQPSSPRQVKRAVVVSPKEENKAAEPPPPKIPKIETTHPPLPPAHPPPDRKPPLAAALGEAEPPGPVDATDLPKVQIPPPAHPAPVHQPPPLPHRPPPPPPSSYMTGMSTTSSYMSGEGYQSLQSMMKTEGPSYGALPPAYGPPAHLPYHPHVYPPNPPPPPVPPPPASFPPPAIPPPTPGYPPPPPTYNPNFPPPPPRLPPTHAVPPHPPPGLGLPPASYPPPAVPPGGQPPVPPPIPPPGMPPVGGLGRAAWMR
Protocol: This assay measures the interaction/recruitment of CDK12/Cyclin K to DDB1, mechanistically validating the molecular glue pharmacology.
HEK293T wildtype cells are seeded 800 k cells/well (DMEM+10% FBS+1% PS) in a 6-well plate and allowed to attach for ˜7 hours followed by a transient transfection of 1.5 μg HaloTag_CDK12 Plasmid [Table 1] and 0.15 μg NanoLuc_DDB1 plasmid [Table 1] per well using PEI. Cells are incubated at 37° C., 5% CO2, harvested after 24 hours and resuspended in assay media (Opti-MEM Reduced serum media, no phenol red, 4% FBS, 1% PS). Cells are adjusted to 2.3×10^5 cells/ml and treated with HaloTag 618 Ligand at 100 nM or DMSO. 8000 cells are seeded per well in triplicates per compound in a white-walled 384-well plate, one negative control treated with DMSO instead of HaloTag 618 Ligand is seeded in triplicates and the 384-well plate is incubated at 37° C., 5% CO2 overnight. Compound stock solutions are prepared in Opti-MEM−/− (Opti-MEM I Reduced serum media, no phenol red) at 8× and used to treat the cells at a final concentration of 1× at 10 μM. Cells and compounds are incubated for 10 minutes at room temperature followed by addition of NanoBRET Nano-Glo substrate following manufacturer's protocols. The plate is shaken for 30 sec followed by immediate measurement of donor emission (NanoBRET Blue at 460 nm) and acceptor emission (BRET Deep Red at 647 nm) for 0.5 s.

[2] = tested on: KBM7 cells harboring a hypomorphic UBE2M mutation; assay: KBM7 CTG EC50 assay (UBE2M knock-out); assay type: cell-based; settings: Homo sapiens, KBM-7; 72 h incubation, CellTiter-Glo; read-out: KBM7 CTG EC50 (UBE2M knock-out) Activity Class
Source text: (§1) This is a cell viability assay to measure the desired therapeutic effect, i.e. killing of cancer cells. The UBE2M mutant cell line has impaired activity of the Cullin-RING ligase system due to a hypomorphic mutation in UBE2M, which is required for activation of these E3 ligases. By comparison with WT cells, it is possible to estimate the contribution of Cyclin K degradation (which is reduced in UBE2M mut cells) compared to kinase inhibition of CDK12 (which is unaffected in UBE2M mut cells). Since the UBE2M mutation only reduces CRL function without fully abrogating it, this assay may slightly underestimate the effect of degradation because, at high compound concentrations, degradation may still be observed.
(§2) KBM7 cells (wild-type or harboring α hypomorphic UBE2M mutation (Mayor-Ruiz et al., 2019)) were seeded in a white opaque 384-well plate at a density of 1000 cells per well in duplicate, in full medium (IMDM+10% FBS+1% penicillin-streptomycin). Cells were treated with compounds in a 10-point titration with a dilution factor of 1:4 (range: 0 to 20 μM). After 72 h of incubation, the cell viability was determined using the CellTiter-Glo® 2.0 reactant (Promega), pre-diluted 1:4 in mQ water. The luminescence signal was measured using the multimode plate reader EnVision 2105 (Perkin Elmer).

KBM7 cells (wild-type) = assay: KBM7 CTG EC50 assay (UBE2M wild-type); assay type: cell-based, human; settings: for EC50: Homo sapiens, KBM-7, 72 h incubation, CellTiter-Glo, read-out: KBM7 CTG EC50 (UBE2M wild-type) Activity Class; for Ratio UBE2M WT to KO: ratio of anti-proliferative activity in KBM7 wild-type versus UBE2M knock-out cells (fold)
Source text: as §1, §2

CCNK = assay: NanoLuc-CCNK degradation assay (HEK293T_Nluc_CCNK-tagged cells); assay type: cell-based; settings: 4 h incubation, HEK293T_Nluc_CCNK-tagged cells; for DC50: read-out: NanoLuc-CCNK degradation DC50 Activity Class
Protocol: The assay helps to elucidate the mechanistic explanation of the cell killing effect of the compounds of the present invention. Cyclin K is fused to a nanoluciferase, light emission is measured as a proxy of Cyclin K abundance. Potency of Cyclin K degradation and cytotoxicity of KBM7 correlate extremely well, further supporting Cyclin K degradation being the main driver of the cell killing, as opposed to inhibition of CDK12 catalytic activity.
HEK293T_Nluc_CCNK-tagged cells were engineered by integrating a nanoluciferase tag at the N-terminus of the endogenous locus of CCNK using CRISPR-Cas9 technology. Briefly, 5.5 million HEK293T cells were co-transfected by PEI with a 1:1 ratio of cutting vector (sgRNA: […]) and repair template (4 μg total plasmid) as previously described (Brand and Winter, 2019). The repair sequence comprises a cassette of puromycinR-P2A-HA-Nluc-(G4S)3 (P2A: self-cleaving peptide 2A, HA: HA-tag, (G4S)3: flexible linker), surrounded by 20-nucleotide microhomologies matching the genomic locus. After 3 days of incubation, the recombinant population was selected by puromycin treatment (2 μg/ml, 5-day treatment). A monoclonal population was obtained by limiting dilution and cassette integration validated by Sanger sequencing.
HEK293T_Nluc_CCNK-tagged cells were seeded in a white opaque 384-well plate at a density of 8000 cells per well in duplicate, in full medium (Opti-MEM I+4% FBS+1% PS). Cells were treated with compounds in a 10-point titration (range: 0 to 10 μM, 1:4 dilution). After 4 h of incubation, Nano-Glo substrate (Promega), pre-diluted in serum-free medium (Opti-MEM I), was added to the cells (1:500 final dilution). The luminescence signal was directly measured using the multimode plate reader EnVision 2105 (Perkin Elmer).

NanoBRET fold-change Activity Class [1]	DC50 (CCNK) [µM]	NanoLuc-CCNK degradation DC50 Activity Class (CCNK)	Compound	EC50 [2] [µM]	EC50 (KBM7 cells (wild-type)) [µM]	Ratio UBE2M WT to KO (KBM7 cells (wild-type))
A (greater than 4-fold increase)	> 10	–	O=C(Cc1cccc2ccncc12)Nc1ncc(C(F)(F)F)s1 [Example 3-33, 2-(isoquinolin-8-yl)-N-(5-(trifluoromethyl)thiazol-2-yl)acetamide]	1 to 10	≤ 0.25	64.7
B (3-4 fold increase)	> 10	–	Cc1ccc(CN2CC(C(=O)Nc3ncc(C(F)(F)F)s3)CC2=O)cc1 (stereo not shown) [Example 3-29, 1-(4-methylbenzyl)-5-oxo-N-(5-(trifluoromethyl)thiazol-2-yl)pyrrolidine-3-carboxamide]	> 10	0.5 to 1	>16
C (2-3 fold increase)	> 10	–	O=C(Cc1cn2cc(F)ccc2n1)Nc1cc(Cl)[nH]n1 [Example 3-60, N-(5-chloro-1H-pyrazol-3-yl)-2-(6-fluoroimidazo[1,2-a]pyridin-2-yl)acetamide]	> 10	1 to 10	>9
B (3-4 fold increase)	> 10	–	O=C(Cc1cccc2ncccc12)Nc1ncc(C(F)(F)F)s1 [Example 3-13, 2-(quinolin-5-yl)-N-(5-(trifluoromethyl)thiazol-2-yl)acetamide]	> 10	1 to 10	>4
C (2-3 fold increase)	> 10	–	O=C(Cc1cncc2ccccc12)Nc1ncc(C(F)(F)F)s1 [Example 3-34, 2-(isoquinolin-4-yl)-N-(5-(trifluoromethyl)thiazol-2-yl)acetamide]	> 10	1 to 10	>3
A (greater than 4-fold increase)	≤ 0.1	–	CC(C(=O)Nc1ncc(C(F)(F)F)s1)c1cc2ccccc2s1 (stereo not shown) [Example 3-11, 2-(benzo[b]thiophen-2-yl)-N-(5-(trifluoromethyl)thiazol-2-yl)propanamide]	≤ 0.25	≤ 0.25	9.4

Second part, the molecule before the results:

Compound	NanoBRET fold-change Activity Class [1]	DC50 (CCNK) [µM]	NanoLuc-CCNK degradation DC50 Activity Class (CCNK)	EC50 [2] [µM]	EC50 (KBM7 cells (wild-type)) [µM]	Ratio UBE2M WT to KO (KBM7 cells (wild-type))
Cc1ccc2c(CC(=O)Nc3cc(Cl)[nH]n3)coc2c1C [Example 3-49, N-(5-chloro-1H-pyrazol-3-yl)-2-(6,7-dimethylbenzofuran-3-yl)acetamide]	B (3-4 fold increase)	–	B (0.50 μM≤DC50<0.10 μM)	1 to 10	≤ 0.25	37.3
Cc1ccc2c(CC(=O)Nc3ccc(C(F)(F)F)cn3)coc2c1C [Example 3-54, 2-(6,7-dimethylbenzofuran-3-yl)-N-(5-(trifluoromethyl)pyridin-2-yl)acetamide]	C (2-3 fold increase)	> 10	–	1 to 10	≤ 0.25	24.7
O=C(Nc1ncc(C(F)(F)F)s1)C1CC(=O)N(c2ccc(F)c(F)c2)C1 (stereo not shown) [Example 3-23, 1-(3,4-difluorophenyl)-5-oxo-N-(5-(trifluoromethyl)thiazol-2-yl)pyrrolidine-3-carboxamide]	B (3-4 fold increase)	> 10	–	> 10	≤ 0.25	>10
O=C(Cc1ccc2ccncc2c1)Nc1ncc(C(F)(F)F)s1 [Example 3-32, 2-(isoquinolin-7-yl)-N-(5-(trifluoromethyl)thiazol-2-yl)acetamide]	B (3-4 fold increase)	≤ 0.1	–	1 to 10	≤ 0.25	115.9
O=C(Nc1ncc(C(F)(F)F)s1)C1CC(=O)N(c2ccc(F)cc2)C1 (stereo not shown) [Example 3-26, 1-(4-fluorophenyl)-5-oxo-N-(5-(trifluoromethyl)thiazol-2-yl)pyrrolidine-3-carboxamide]	C (2-3 fold increase)	> 10	–	> 10	1 to 10	>5
O=C(Nc1ncc(C(F)(F)F)s1)C1CC(=O)N(Cc2ccccc2)C1 (stereo not shown) [Example 3-27, 1-benzyl-5-oxo-N-(5-(trifluoromethyl)thiazol-2-yl)pyrrolidine-3-carboxamide]	B (3-4 fold increase)	≤ 0.1	–	> 10	≤ 0.25	>10
Cc1cccn2cc(CC(=O)Nc3ncc(C(F)(F)F)s3)nc12 [Example 3-7, 2-(8-methylimidazo[1,2-a]pyridin-2-yl)-N-(5-(trifluoromethyl)thiazol-2-yl)acetamide]	B (3-4 fold increase)	> 10	–	1 to 10	≤ 0.25	42.4
O=C(Cc1cccc2cnccc12)Nc1ncc(C(F)(F)F)s1 [Example 3-30, 2-(isoquinolin-5-yl)-N-(5-(trifluoromethyl)thiazol-2-yl)acetamide]	C (2-3 fold increase)	> 10	–	> 10	> 10	>1
Cc1ccc2c(CC(=O)Nc3ncc(C(C)C)s3)coc2c1C [Example 3-2, 2-(6,7-dimethylbenzofuran-3-yl)-N-(5-isopropylthiazol-2-yl)acetamide]	B (3-4 fold increase)	≤ 0.1	–	0.5 to 1	≤ 0.25	12.7
Cc1cc(NC(=O)Cc2cn3cc(F)ccc3n2)n[nH]1 [Example 3-56, 2-(6-fluoroimidazo[1,2-a]pyridin-2-yl)-N-(5-methyl-1H-pyrazol-3-yl)acetamide]	C (2-3 fold increase)	> 10	–	> 10	0.25 to 0.5	>10
Cc1ccc2c(ccn2CC(=O)Nc2ncc(C(F)(F)F)s2)c1 [Example 3-37, 2-(5-methyl-1H-indol-1-yl)-N-(5-(trifluoromethyl)thiazol-2-yl)acetamide]	C (2-3 fold increase)	> 10	–	> 10	1 to 10	>4
